Reference: PMC2669305 (Assay and drug development technologies, 2008)

Target: T1, thioredoxin glutathione reductase (TGR) (Schistosoma mansoni, UniProt Q962Y6)
T1 sequence (Q962Y6 1-598): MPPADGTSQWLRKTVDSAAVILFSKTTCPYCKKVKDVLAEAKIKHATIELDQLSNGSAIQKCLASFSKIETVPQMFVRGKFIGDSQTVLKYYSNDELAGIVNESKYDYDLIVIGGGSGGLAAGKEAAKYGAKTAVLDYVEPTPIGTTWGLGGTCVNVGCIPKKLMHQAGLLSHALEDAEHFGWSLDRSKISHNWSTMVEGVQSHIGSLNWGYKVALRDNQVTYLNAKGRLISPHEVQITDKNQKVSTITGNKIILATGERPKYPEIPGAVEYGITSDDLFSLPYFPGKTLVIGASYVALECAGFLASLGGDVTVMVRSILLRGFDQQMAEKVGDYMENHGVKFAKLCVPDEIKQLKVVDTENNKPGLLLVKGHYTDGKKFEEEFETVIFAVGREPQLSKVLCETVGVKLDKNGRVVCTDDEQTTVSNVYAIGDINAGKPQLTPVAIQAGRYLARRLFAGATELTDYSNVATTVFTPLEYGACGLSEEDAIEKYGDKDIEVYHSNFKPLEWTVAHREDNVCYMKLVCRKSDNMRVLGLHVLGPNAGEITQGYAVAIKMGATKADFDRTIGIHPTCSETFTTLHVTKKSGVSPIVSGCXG
Assay type: biochemical

- IC50: 4 to 7.9 µM
Compound: N#Cc1c(-c2ccccc2)no[n+]1[O-] [furoxan, 4-phenyl-3-furoxancarbonitrile]
